Experimental findings from ChEMBL document CHEMBL1148226, “Evidences for the formation of bisbenzamidine-heme complexes in cell-free systems” (Bioorg Med Chem Lett, 2004) are described below.

Experiment [1] relates to Plasmodium falciparum. Description: In vitro inhibitory concentration against chloroquine-sensitive Plasmodium falciparum; Not active. The experiment is classed as functional, organism-based.
Experiment [2] concerns Plasmodium falciparum. As to the kind of experiment: In vitro inhibitory concentration against chloroquine-resistant Plasmodium falciparum; Not active. The experiment is classed as functional, organism-based.

For `CN1CCN(C)C1c1ccc(N2CCN(c3ccc(C4N(C)CCN4C)cc3)CC2)cc1`, the IC50 result in the experiment on Plasmodium falciparum [1] and in the experiment on Plasmodium falciparum [2] was “Not Active” in each case.

Regarding `COc1ccc(N)cc1`, the IC50 result with Plasmodium falciparum [1] and in the experiment with Plasmodium falciparum [2] was “Not Active” throughout.

Turning to `CCOC(=O)c1ccc(N2CCN(c3ccc(C(=O)OCC)cc3)CC2)cc1`, the IC50 entry with Plasmodium falciparum [1] and with Plasmodium falciparum [2] was “Not Active” each time.

Take `Cl.N=C(N)c1ccc(N)cc1`: the IC50 result in the experiment on Plasmodium falciparum [1] and with Plasmodium falciparum [2] was “Not Active” throughout.

For `Nc1ccccc1` [ANILINE], the IC50 result in the experiment on Plasmodium falciparum [1] and with Plasmodium falciparum [2] was “Not Active” each time.

For the compound `CN` [METHYLAMINE], the IC50 entry in the experiment with Plasmodium falciparum [1] and with Plasmodium falciparum [2] was “Not Active” each time.
